# Reference: patent publication US20050203176A1, “Carbamates as HIV anti-viral agents” (WYETH, priority 2004, published 2005)
# pIC50: −log10 of the molar value. Where two headings read alike, the source gives them in different places.
# Legend:
# [1] = biological target: T1, HIV reverse transcriptase (RNase H activity) (Human immunodeficiency virus type 1 group M subtype B, UniProt P04585); experiment: RNase H / HIV reverse transcriptase inhibition (fluorescent probe-target hybrid assay); assay type: biochemical; settings: inhibition of HIV reverse transcriptase / RNase H, Table I
# T1 construct: HIV reverse transcriptase has an RNase H domain at the C-terminus of its p66 subunit
# Excerpt: Preferably, the RNase H/HIV reverse transcriptase modulatory activity of the compounds of the present invention may be determined by the methods described in copending U.S. provisional patent Application No. 60/436,125, filed Dec. 19, 2003 and PCT Application Ser. No. WO 2004/059012, filed Dec. 22, 2003, published Jul. 15, 2004, entitled ASSAY FOR RNase ACTIVITY of Olsen et al., incorporated herein by reference in their entirety. Specifically, the modulatory activity of a carbamate derivative of the present invention may be determined by hybridizing a target nucleic acid to a fluorescently labeled oligonucleotide probe complementary to the target nucleic acid and containing a fluorophor at one terminus and a quenching group at the other terminus to obtain a probe-target hybrid, wherein (i) the unhybridized probe adopts a conformation that places the fluorophor and quencher in such proximity that the quencher quenches the fluorescent signal of the fluorophor, and (ii) the formation of the probe-target hybrid causes sufficient separation of the fluorophor and quencher to reduce quenching of the fluorescent signal of the fluorophor. Next, a first and second sample containing the probe-target hybrid are prepared. The probe-target hybrid of the first sample is then contacted with an RNase H enzyme (such as HIV reverse transcriptase) in an amount sufficient to selectively cleave the target nucleic acid and thereby release the intact probe. The probe-target hybrid of the second sample is also contacted with the RNase H enzyme in an amount sufficient to selectively cleave the target nucleic acid and thereby release the intact probe in the presence of a candidate carbamate derivative of the present invention. The release of the probe in each sample may then be detected by measuring the […] in the fluorescent signal of the fluorophor as compared to the signal of the probe-target hybrid. A comparison of the rate of the decrease in the fluorescent signal of the fluorophor in the two samples is made to determine whether there is a difference in the rate of the decrease in the two samples. […] This method is also useful to identify carbamate derivatives of the present invention, wherein candidate carbamate derivatives are screened for their ability to modulate RNase/HIV reverse transcriptase activity.
# [2] = biological target: T2, HIV Reverse transcriptase (RT) p66/p51, RDDP activity (Human immunodeficiency virus type 1 group M subtype B, UniProt P04585); experiment: RNA dependent DNA polymerase (RDDP) activity of HIV RT, 33P TTP incorporation with polyrA-oligodT12-18; assay type: biochemical
# T2 construct: […]; purchased Worthington
# HIV-1 infection = settings: cited from earlier work
Molecule,pIC50 [1],pIC50 [2],further results
COc1ccc(C)cc1NC(=O)CSC(=S)N(Cc1ccccc1)Cc1ccccc1 [Example 9],4.34,< 4.10,
CCN(CC)C(=S)S [diethyldicarbamate],,,"patients who died during eighteen-month follow up (HIV-1 infection; 3 placebo patients had died from AIDS): none; patients with AIDS at the end of the study (HIV-1 infection; HIV-1 patients Walter Reed stages 2-4, 24 weeks treatment, 6 of the placebo patients had AIDS): no patient; disease progression (HIV-1 infection; HIV-1 patients, group that received the drug vs placebo): Significantly delayed disease progression"
"O=C(CSC(=S)N(Cc1ccccc1)c1ccccc1)Nc1ccc(Cl)c(Cl)c1Cl [Example 7, 2-oxo-2-[(2,3,4,-trichlorophenyl)amino]ethyl benzylphenyl dithiocarbamate]",4.58,< 4.10,
"Cc1ccc(NC(=O)CSC(=S)N(Cc2ccccc2)Cc2ccccc2)c(C)c1 [Example 1, 2-[(2,4-dimethylphenyl)amino]-2-oxoethyl dibenzyldithiocarbamate]",5.51,4.52,
"COc1ccc(C)cc1NC(=O)CSC(=S)N(Cc1ccccc1)c1ccccc1 [Example 5, 2-[(2-methoxy-5-methylphenyl)amino]-2-oxoethyl benzyl(phenyl)dithiocarbamate]",5.08,< 4.10,
"N#Cc1cccc(NC(=O)CSC(=S)N(Cc2ccccc2)Cc2ccccc2)c1 [Example 3, 2-[(3-cyanophenyl)amino]-2-oxoethyl dibenzyldithiocarbamate]",5.33,< 4.10,
"Cc1cn([C@H]2C[C@H](N=[N+]=[N-])[C@@H](CO)O2)c(=O)[nH]c1=O [AZT, zidovudine, reference compound]",,> 6.70,
"N#Cc1cccc(NC(=O)CSC(=S)N(Cc2ccccc2)c2ccccc2)c1 [Example 6, 2-[(3-cyanophenyl)amino]-2-oxoethyl benzyl(phenyl)dithiocarbamate]",4.94,< 4.10,
"O=C(CSC(=S)N(Cc1ccccc1)Cc1ccccc1)Nc1ccc(Cl)cc1Cl [Example 4, 2-[(2,4-dichlorophenyl)amino]-2-oxoethyl dibenzyldithiocarbamate]",5.24,< 3.80,
"2-[(2,4-dimethylphenyl)amino]-2-oxoethyl dibenzyl(phenyl)dithiocarbamate [Example 8]",4.38,,"pIC50 ([2]; inhibition of polymerase (RDDP) activity of HIV reverse transcriptase, Table II, read-out: IC50): < 4.10"
"O=C(CSC(=S)N(Cc1ccccc1)Cc1ccccc1)Nc1ccc(Cl)c(Cl)c1Cl [Example 2, 2-oxo-2-[(2,3,4-trichlorophenyl)amino]ethyl dibenzyldithiocarbamate]",5.48,< 4.10,
